Assay results from patent US9018388B2, “Pesticidal compositions and processes related thereto” (Dow AgroSciences LLC, priority 2012, dated 2015).

Legend:
[1] = test system: Beet Armyworm (BAW) (Spodoptera exigua); experiment: Bioassay on beet armyworm (BAW), 128-well diet tray assay; type: in vivo; details: Spodoptera exigua; Beet armyworm, 50 μg/cm^2; read-out: % Mortality BAW 50 μg/cm^2
Method: (§1) Bioassays on Beet Armyworm (“BAW”) and Corn Earworm (“CEW”)
(§2) Certain molecules disclosed in this document were tested against BAW and CEW using procedures described in the following examples. In the reporting of the results, the “BAW & CEW Rating Table” was used (See Table Section).
Bioassays on BAW (Spodoptera exigua)
Bioassays on BAW were conducted using a 128-well diet tray assay. One to five second instar BAW larvae were placed in each well (3 mL) of the diet tray that had been previously filled with 1 mL of artificial diet to which 50 μg/cm^2 of the test compound (dissolved in 50 μL of 90:10 acetone-water mixture) had been applied (to each of eight wells) and then allowed to dry. Trays were covered with a clear self-adhesive cover and held at 25° C., 14:10 light-dark for five to seven days. Percent mortality was recorded for the larvae in each well; activity in the eight wells was then averaged. The results are indicated in the table entitled “Table 5: Biological Results” (See Table Section).

[2] = test system: Corn Earworm (CEW) (Helicoverpa zea); experiment: Bioassay on corn earworm (CEW), 128-well diet tray assay; type: in vivo; details: Helicoverpa zea; Corn earworm, 50 μg/cm^2; read-out: % Mortality CEW 50 μg/cm^2
Method: as §1, §2
Bioassays on CEW (Helicoverpa zea)
Bioassays on CEW were conducted using a 128-well diet tray assay. One to five second instar CEW larvae were placed in each well (3 mL) of the diet tray that had been previously filled with 1 mL of artificial diet to which 50 μg/cm^2 of the test compound (dissolved in 50 μL of 90:10 acetone-water mixture) had been applied (to each of eight wells) and then allowed to dry. Trays were covered with a clear self-adhesive cover and held at 25° C., 14:10 light-dark for five to seven days. Percent mortality was recorded for the larvae in each well; activity in the eight wells was then averaged. The results are indicated in the table entitled “Table 5: Biological Results” (See Table Section).

| SMILES | pest or weed control at 50 µg/cm2, 50 µg/cm2 [1] | pest or weed control at 50 µg/cm2, 50 µg/cm2 [2] |
| --- | --- | --- |
| CC(C)Cc1ccccc1N1CCS/C1=N\N=C\c1ccc(-c2ncn(-c3ccc(OC(F)(F)F)cc3)n2)cc1 [Compound 150C] | 50 to 100% | 50 to 100% |
| CC1CSC(=NN=Cc2ccc(-c3ncn(-c4ccc(OC(F)(F)F)cc4)n3)cc2)N(c2ccccc2C(C)C)C1 (stereo in doubt) [Compound 178C, (Z)-3-(2-isopropylphenyl)-5-methyl-2-((E)-(4-(1-(4-(trifluoromethoxy)phenyl)-1H-1,2,4-triazol-3-yl)benzylidene)hydrazono)-1,3-thiazinane] | 50 to 100% | 50 to 100% |
| CC(C)c1cc(F)ccc1N1CS/C1=N\N=C\c1ccc(-c2ncn(-c3ccc(OC(F)(F)F)cc3)n2)cc1 [Compound 252C] | 50 to 100% | 50 to 100% |
| Cc1cccc(C)c1N1CS/C1=N\N=C\c1ccc(-c2ncn(-c3ccc(OC(F)(F)F)cc3)n2)cc1 [Compound 241C] | 50 to 100% | 50 to 100% |
| Cc1cccc(C)c1/N=C(/N/N=C/c1ccc(-c2ncn(-c3ccc(OC(F)(F)F)cc3)n2)cc1)SCc1c(-c2ccccc2)noc1C [Compound 20C] | 50 to 100% | 50 to 100% |
| CC1CS/C(=N\N=C\c2ccc(-c3ncn(-c4ccc(OC(F)(F)F)cc4)n3)cc2)N(c2c(Cl)cccc2C(F)(F)F)C1 (stereo not drawn) [Compound 215C] | 50 to 100% | 50 to 100% |
| COc1cc(C)c(/N=C(/N/N=C/c2ccc(-c3ncn(-c4ccc(OC(F)(F)C(F)(F)F)cc4)n3)cc2)SCOC(=O)C(C)C)c(C)c1 [Compound 37C] | 50 to 100% | 50 to 100% |
| COc1cc(C)c(N2CS/C2=N\N=C\c2ccc(-c3ncn(-c4ccc(OC(F)(F)F)cc4)n3)cc2)c(C)c1 [Compound 242C] | 50 to 100% | 50 to 100% |
| COc1cc(C)c(N2C(=O)CSC2=NN=Cc2ccc(-c3ncn(-c4ccc(OC(F)(F)F)cc4)n3)cc2)c(C)c1 (stereo in doubt) [Compound 69C, (Z)-3-(4-methoxy-2,6-dimethylphenyl)-2-((E)-(4-(1-(4-(trifluoromethoxy)phenyl)-1H-1,2,4-triazol-3-yl)benzylidene)hydrazono)thiazolidin-4-one] | 50 to 100% | 50 to 100% |
| COc1ccc(N2C(=O)CCS/C2=N\N=C\c2ccc(-c3ncn(-c4ccc(OC(F)(F)F)cc4)n3)cc2)c(C)c1 [Compound 231C] | 50 to 100% | 50 to 100% |
| CC(C)c1ccccc1N1CCCCS/C1=N\N=C\c1ccc(-c2ncn(-c3ccc(OC(F)(F)F)cc3)n2)cc1 [Compound 212C] | 50 to 100% | 50 to 100% |
| CC(C)(C)c1ccccc1N1C(=O)CCS/C1=N\N=C\c1ccc(-c2ncn(-c3ccc(OC(F)(F)F)cc3)n2)cc1 [Compound 232C] | 50 to 100% | 50 to 100% |
| CCc1cccc(C)c1N1C(=O)CCS/C1=N\N=C\c1ccc(-c2ncn(-c3ccc(OC(F)(F)F)cc3)n2)cc1 [Compound 225C] | 50 to 100% | 50 to 100% |
| CC(C)c1ccccc1N1CCCS/C1=N\N=C\c1ccc(-c2ncn(-c3ccc(C(F)(F)F)cc3)n2)cc1 [Compound 179C] | 50 to 100% | 50 to 100% |
| CC1CCS/C(=N\N=C\c2ccc(-c3ncn(-c4ccc(OC(F)(F)F)cc4)n3)cc2)N1c1c(Cl)cccc1C(F)(F)F (stereo not drawn) [Compound 217C] | 50 to 100% | 50 to 100% |
| Cc1cccc(C)c1/N=C(/N/N=C/c1ccc(-c2ncn(-c3ccc(OC(F)(F)F)cc3)n2)cc1)SCC(=O)NCCCN(C)C(=O)OC(C)(C)C [Compound 61C] | 50 to 100% | 50 to 100% |
| CCc1cccc(C)c1N1CCS/C1=N\N=C\c1ccc(-c2ncn(-c3ccc(OC(F)(F)F)cc3)n2)cc1 [Compound 136C] | 50 to 100% | 50 to 100% |
| COc1ccc(N2C(=O)CS/C2=N\N=C\c2ccc(-c3ncn(-c4ccc(OC(F)(F)F)cc4)n3)cc2)c(C)c1 [Compound 114C] | 50 to 100% | 50 to 100% |
| CC(C)=Cc1ccccc1N1CCCS/C1=N\N=C\c1ccc(-c2ncn(-c3ccc(OC(F)(F)F)cc3)n2)cc1 [Compound 197C] | 50 to 100% | 50 to 100% |
| O=C1CCS/C(=N\N=C\c2ccc(-c3ncn(-c4ccc(OC(F)(F)F)cc4)n3)cc2)N1c1ccccc1OC(F)F [Compound 233C] | 50 to 100% | 50 to 100% |

| SMILES | pest or weed control at 50 µg/cm2, 50 µg/cm2 [1] | pest or weed control at 50 µg/cm2, 50 µg/cm2 [2] |
| --- | --- | --- |
| COc1cc(C)c(-n2c(C(=O)O)cs/c2=N\N=C\c2ccc(-c3ncn(-c4ccc(OC(F)(F)F)cc4)n3)cc2)c(C)c1 [Compound 80C] | 50 to 100% | 50 to 100% |
| CC1CS/C(=N\N=C\c2ccc(-c3ncn(-c4ccc(OC(F)(F)F)cc4)n3)cc2)N1c1ccccc1OC(F)F (stereo not drawn) [Compound 164C] | 50 to 100% | 50 to 100% |
| CC(F)(F)Oc1ccccc1N1C(=O)CCS/C1=N\N=C\c1ccc(-c2ncn(-c3ccc(OC(F)(F)F)cc3)n2)cc1 [Compound 229C] | 50 to 100% | 50 to 100% |
| CCc1ccccc1N1C(=O)CS/C1=N\N=C\c1ccc(-c2ncn(-c3ccc(OC(F)(F)F)cc3)n2)cc1 [Compound 94C] | 50 to 100% | 50 to 100% |
| CC1CCS/C(=N\N=C\c2ccc(-c3ncn(-c4ccc(OC(F)(F)F)cc4)n3)cc2)N1c1ccccc1OC(F)F (stereo not drawn) [Compound 221C] | 50 to 100% | 50 to 100% |
| CCc1cccnc1N1C(=O)CS/C1=N\N=C\c1ccc(-c2ncn(-c3ccc(OC(F)(F)F)cc3)n2)cc1 [Compound 123C] | 50 to 100% | 50 to 100% |
| Cc1ccccc1N1C(=O)CS/C1=N\N=C\c1ccc(-c2ncn(-c3ccc(OC(F)(F)F)cc3)n2)cc1 [Compound 113C] | 50 to 100% | 50 to 100% |
| CCC(C)c1ccccc1N1/C(=N/N=C/c2ccc(-c3ncn(-c4ccc(OC(F)(F)F)cc4)n3)cc2)SCC1C (stereo not drawn) [Compound 163C] | 50 to 100% | 50 to 100% |
| O=C1CCS/C(=N\N=C\c2ccc(-c3ncn(-c4ccc(OC(F)(F)F)cc4)n3)cc2)N1c1c(Cl)cccc1C(F)(F)F [Compound 228C] | 50 to 100% | 50 to 100% |
| CC1S/C(=N\N=C\c2ccc(-c3ncn(-c4ccc(OC(F)(F)F)cc4)n3)cc2)N(c2c(F)cccc2F)C1=O (stereo not drawn) [Compound 131C] | 50 to 100% | 50 to 100% |
| CC(C)c1ccc(F)cc1N1CS/C1=N\N=C\c1ccc(-c2ncn(-c3ccc(C(C)(F)F)cc3)n2)cc1 [Compound 259C] | 50 to 100% | 50 to 100% |
| Cc1cccc(C)c1N1C(=O)CS/C1=N\N=C\c1ccc(-c2ncn(-c3ccc(OC(F)(F)C(F)(F)F)cc3)n2)cc1 [Compound 100C] | 50 to 100% | 50 to 100% |
| Cc1cccc(C)c1/N=C(/N/N=C/c1ccc(-c2ncn(-c3ccc(OC(F)(F)F)cc3)n2)cc1)SCC(=O)NCC(C)C [Compound 55C] | 50 to 100% | 50 to 100% |
| FC(F)Oc1ccccc1N1CCCS/C1=N\N=C\c1ccc(-c2ncn(-c3ccc(OC(F)(F)F)cc3)n2)cc1 [Compound 200C] | 50 to 100% | 50 to 100% |
| CC(C)Cc1ccccc1N1C(=O)CS/C1=N\N=C\c1ccc(-c2ncn(-c3ccc(OC(F)(F)F)cc3)n2)cc1 [Compound 119C] | 50 to 100% | 50 to 100% |
| CC(C)c1ccccc1N1CCCS/C1=N\N=C\c1ccc(-c2ncn(-c3ccc(OC(F)(F)F)cc3)n2)cc1 [Compound 177C] | 50 to 100% | 50 to 100% |
| COc1ccccc1N1CCCS/C1=N\N=C\c1ccc(-c2ncn(-c3ccc(OC(F)(F)F)cc3)n2)cc1 [Compound 191C] | 50 to 100% | 50 to 100% |
| Cc1cccc(C)c1/N=C(/N/N=C/c1ccc(-c2ncn(-c3ccc(OC(F)(F)F)cc3)n2)cc1)SCc1ccccc1 [Compound 10C] | 50 to 100% | 50 to 100% |
| Cc1cs/c(=N\N=C\c2ccc(-c3ncn(-c4ccc(OC(F)(F)F)cc4)n3)cc2)n1-c1ccccc1OC(F)(F)F [Compound 170C] | 50 to 100% | 50 to 100% |
